Results on seven molecules are retold here after publication PMC10489748, “The Anti-Breast Cancer Stem Cell Potency of Copper(I)-Non-Steroidal Anti-Inflammatory Drug Complexes” (Molecules, 2023).

The subject of data set [1] is HMLER-shEcad mammospheres. The data set is described as follows: Mammosphere viability assay (TOX8). The format is cell-based, human. The settings on record: TOX8, 120 h incubation. How it is done: HMLER-shEcad cells (5 × 10^3) were plated in ultralow-attachment 96-well plates (Corning) and incubated in MEGM supplemented with B27 (Invitrogen), 20 ng mL^−1 EGF, and 4 μg mL^−1 heparin (Sigma), for 5 days. Studies were also conducted in the presence of 1–3, cisplatin and salinomycin (0–133 µM). Mammospheres treated with 1–3, cisplatin, and salinomycin (0.5 µM, 5 days) were counted and imaged, using an inverted microscope. The viability of the mammospheres was determined via the addition of a resazurin-based reagent, TOX8 (Sigma). After incubation for 16 h, the fluorescence of the solutions was read at 590 nm (λex = 560 nm). Viable mammospheres reduce the amount of the oxidised TOX8 form (blue) and, concurrently, increase the amount of the fluorescent TOX8 intermediate (red), indicating the degree of mammosphere cytotoxicity caused by the test compound. Fluorescence values were normalised to DMSO-containing controls, and plotted as concentration of test compound versus % mammospheres viability. IC50 values were interpolated from the resulting dose-dependent curves. The reported IC50 values are the average of two independent experiments, each consisting of two replicates per concentration level (n = 4).

For data set [2], the system named is HMLER-shEcad cells. The data set is described as follows: Intracellular ROS assay (DCFH-DA). The format is cell-based, human. The settings on record: 2 × IC50 value. How it is done:
HMLER-shEcad cells (5 × 10^3) were seeded in each well of a 96-well plate. […] The intracellular ROS level was determined via measurement of the fluorescence of the solutions in each well at 529 nm (λex = 504 nm).

In data set [3] the test system is HMLER cells. The data set is described as follows: MTT cytotoxicity assay, bulk breast cancer cells. The format is cell-based, human. The settings on record: 72 h incubation. The procedure:
(§1) Exponentially growing cells were seeded at a density of approximately 5 × 10^3 cells per well in 96-well flat-bottomed microplates, and allowed to attach for 24 h prior to the addition of compounds. […] Stock solutions of the compounds were prepared as 10 mM DMSO solutions, and diluted using cell media. […] After 72 h, 20 μL of MTT (4 mg mL^−1 in PBS) was added to each well, and the plates were incubated for an additional 4 h at 37 °C. The media/MTT mixture was eliminated, and DMSO (100 μL per well) was added to dissolve the formazan precipitates. […] Absorbance values were normalised to (DMSO-containing) control wells, and plotted as concentration of compound versus % cell viability. IC50 values were interpolated from the resulting dose-dependent curves.
(In general: Formazan colour is commonly taken as a measure of viable cells.)

For data set [4], the system named is BEAS-2B cells. Nature of the data set: MTT cytotoxicity assay, non-cancerous bronchial epithelium cells. The format is cell-based. The settings on record: 72 h incubation. The procedure:
Exponentially growing cells were seeded at a density of approximately 5 × 10^3 cells per well in 96-well flat-bottomed microplates, and allowed to attach for 24 h prior to the addition of compounds. Various concentrations of the test compounds (0.19–100 μM) were added, and the plates were incubated for 72 h at 37 °C (total volume 200 μL). Stock solutions of the compounds were prepared as 10 mM DMSO solutions, and diluted using cell media. The final concentration of DMSO in each well was ≤1 %. After 72 h, 20 μL of MTT (4 mg mL^−1 in PBS) was added to each well, and the plates were incubated for an additional 4 h at 37 °C. The media/MTT mixture was eliminated, and DMSO (100 μL per well) was added to dissolve the formazan precipitates. The optical density was measured at 550 nm, using a 96-well multiscanner autoreader. Absorbance values were normalised to (DMSO-containing) control wells, and plotted as concentration of compound versus % cell viability. IC50 values were interpolated from the resulting dose-dependent curves.

Data set [5] deals with HMLER-shEcad cells. The data set is described as follows: MTT cytotoxicity assay, breast CSCs. The settings on record: 72 h incubation. The format is cell-based, human. The procedure:
as §1

Data set [6] is described as follows: Water–octanol partition coefficient (LogP), shake-flask method and ICP-MS. The format is physicochemical. The settings on record: water/1-octanol, room temperature, 24 h. How it is done: The 1-octanol used in this experiment was pre-saturated with water. […] The tube was shaken at room temperature for 24 h. The two phases were separated via centrifugation, and the copper content in the water phase was determined via ICP-MS.

Data set [7] relates to HMLER-shEcad cells. As to conditions: 72 h incubation, cited from earlier work.
Data set [8] concerns HMLER cells. The settings on record: 72 h incubation, cited from earlier work.
In data set [9] the test system is HMLER-shEcad mammospheres. Also on record: method as in PMID 26806362, PMID 31588328, PMID 28932846, PMID 31209956. As to conditions: 120 h incubation, ref [14],[37],[39],[40], read-out: Mammosphere IC50; cited from earlier work.
Setting [10] is: ref [1,2] of the SI (Eskandari et al. 2016; Eskandari, Suntharalingam 2019).

Read-outs that look alike come from different tables or passages of the source.

The term IC50 denotes the concentration that gives 50% inhibition. Consider `O=C([O-])Cc1ccccc1Nc1c(Cl)cccc1Cl.[Cu+].c1ccc(P(c2ccccc2)c2ccccc2)cc1.c1ccc(P(c2ccccc2)c2ccccc2)cc1` [compound 1, [Cu^I(diclofenac)(PPh3)2]], for which the IC50 in data set [1] was 18.2 ± 2.02 µM; in [3], 2.42 ± 0.1 µM; in data set [4] it was 4.32 ± 0.13 µM; in data set [5], 4.61 ± 0.18 µM. The “Increase in ROS levels compared to untreated control cells” value in data set [2] (1 h exposure) came out at 76%. Also, in data set [2] (exposure beyond 1 h (3–24 h)), the “Change of intracellular ROS status” value was “did not markedly alter”.
One may read the LogP as the decadic logarithm of the partition coefficient of the neutral form, usually between octanol and water. Low values mean lower lipophilicity, high ones higher lipophilicity. Turning to `O=C([O-])c1ccccc1O.[Cu+].c1ccc(P(c2ccccc2)c2ccccc2)cc1.c1ccc(P(c2ccccc2)c2ccccc2)cc1` [compound 3, [Cu^I(salicylate)(PPh3)2]], the IC50 in [1] amounted to 13.6 ± 0.74 µM; in data set [3], 2.13 ± 0.002 µM; in data set [4] it was 3.53 ± 0.21 µM; in data set [5], 4.55 ± 0.001 µM. In addition, the results for the “Increase in ROS levels” value in data set [2] (16 h exposure) and in data set [2] (24 h exposure) were 191% and 75%, respectively. The molecule also gave a LogP in [6] of 0.82 ± 0.002.
On to `COc1ccc2cc([C@H](C)C(=O)O)ccc2c1` [naproxen], for which the IC50 in [7] (setting [10]) and in data set [8] (setting [10]) was more than 100 µM each time.
Turning to `N.N.[Cl][Pt][Cl]` [cisplatin], the values for the IC50 in data set [9], in data set [7] (ref [14],[37],[39],[40]) and in data set [8] (ref [14],[37],[39],[40]) were 13.5 ± 2.34 µM, 5.65 ± 0.3 µM and 2.57 ± 0.02 µM, respectively.
For `COc1ccc2cc(C(C)C(=O)[O-])ccc2c1.[Cu+].c1ccc(P(c2ccccc2)c2ccccc2)cc1.c1ccc(P(c2ccccc2)c2ccccc2)cc1` [compound 2, [Cu^I(naproxen)(PPh3)2]], the IC50 in data set [1] came to 11.8 ± 0.7 µM; in data set [3], 2.36 ± 0.03 µM; in data set [4], 4.11 ± 0.001 µM; in data set [5], 4.46 ± 0.08 µM. The results for the “Increase in ROS levels” value in data set [2] (16 h exposure) and in data set [2] (24 h exposure) were 41% and 32%, respectively.
In the case of `CC[C@@H](C(=O)[C@@H](C)[C@@H](O)[C@H](C)[C@@H]1O[C@@H]([C@@H](CC)C(=O)O)CC[C@@H]1C)[C@H]1O[C@]2(C=C[C@@H](O)[C@]3(CC[C@@](C)([C@H]4CC[C@](O)(CC)[C@H](C)O4)O3)O2)[C@H](C)C[C@@H]1C` [salinomycin], the IC50 is 18.5 ± 1.5 µM in data set [9], 4.23 ± 0.35 µM in data set [7] (ref [14],[37],[39],[40]) and 11.4 ± 0.42 µM in data set [8] (ref [14],[37],[39],[40]).
Consider `O=C(O)Cc1ccccc1Nc1c(Cl)cccc1Cl` [diclofenac], for which the IC50 in [7] (setting [10]) was 54.74 ± 0.23 µM; in [8] (setting [10]) it was 69.5 ± 8.7 µM.
